The results in this text go back to patent US8106077B2, “Compounds and methods for modulating FXR” (Eli Lilly and Company, priority 2007, dated 2012).

One assay concerns LDLR−/− mice. Kind of assay: LDLR−/− serum lipid modulation. In kind it is in vivo. Particulars: male LDLR−/− mice on western diet, 10 mg/kg, oral gavage once daily for seven days. The protocol:
Acclimate animals for two weeks prior to study initiation. House mice individually in polycarbonate cages with filter tops, and maintain mice on a 12:12 hour light-dark cycle (lights on at 6:00 AM) at 21° C. Provide deionized water ad libitum and maintain for two weeks on ‘western diet’ TD 88137 Diet (42% fat, 0.15% cholesterol, Harlan Teklad) ad libitum. Optimize groups of five ten-week-old male LDLR−/− mice based on serum triglyceride and cholesterol levels. Dose groups once daily by oral gavage with various doses of the test compound dissolved in 5% EtOH/5% Solutol in NaCMC (1%), SLS (0.5%), antifoam (0.05%), Povidone (0.085%) for seven days. At the end of the seven-day dosing period, collect blood by cardiac puncture after asphyxiation in a CO2 chamber. […] Lipoproteins were separated by fast protein liquid chromatography, and cholesterol was quantitated with an in-line detection system. […] The colored product produced in the presence of cholesterol was monitored in the flow stream at 505 nm, and the analog voltage from the monitor was converted to a digital signal for collection and analysis. The change in voltage corresponding to change in cholesterol concentration was plotted vs. time, and the area under the curve corresponding to the elution of VLDL-C and HDL-C was calculated using Turbochrome (version 4.12F12) software from PerkinElmer (Norwalk, Conn.). […]

In the next assay the target is T1, FXR (Homo sapiens, UniProt Q96RI1).
T1 construct: Plate human hepatocarcinoma Huh7 cells grown in DMEM:F12 with 10% fetal bovine serum; endogenous in cells; host or cells: Huh7 (human hepatocarcinoma)
T1 sequence (Q96RI1 1-486): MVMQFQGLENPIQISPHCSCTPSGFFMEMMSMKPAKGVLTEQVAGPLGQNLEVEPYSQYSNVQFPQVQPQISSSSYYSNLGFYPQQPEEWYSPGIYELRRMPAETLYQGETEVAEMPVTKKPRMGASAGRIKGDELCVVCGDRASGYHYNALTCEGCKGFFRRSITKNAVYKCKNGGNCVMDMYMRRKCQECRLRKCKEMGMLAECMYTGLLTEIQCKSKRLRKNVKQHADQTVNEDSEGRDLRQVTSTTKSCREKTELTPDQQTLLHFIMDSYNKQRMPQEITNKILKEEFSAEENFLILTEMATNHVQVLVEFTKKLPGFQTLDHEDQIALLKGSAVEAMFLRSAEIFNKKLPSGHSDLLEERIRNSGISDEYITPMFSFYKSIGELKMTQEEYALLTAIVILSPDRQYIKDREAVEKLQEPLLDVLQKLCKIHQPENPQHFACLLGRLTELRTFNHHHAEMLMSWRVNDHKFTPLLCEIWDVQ
Kind of assay: bDNA assay for SHP mRNA. The class given is cell-based. The following applies: human hepatocarcinoma Huh7 cells, 24 hours, bDNA signal; read-out: SHP gene activation EC50. From the text:
FXR is a key, direct transcriptional regulator of the Small Heterodimer Partner (SHP) gene, accession number NM_021969, an atypical member of the nuclear receptor family that lacks a DNA-binding domain. SHP interacts with several conventional and orphan members of the nuclear receptor superfamily, including retinoid receptors and thyroid hormone receptor. SHP inhibits transactivation potential of superfamily members with which it interacts. […] Since FXR directly transactivates transcription of the SHP gene, the SHP branched DNA method (bDNA) quantitates FXR activation by ligands. Thus, increased expression of SHP mRNA, as determined by increase bDNA signal, signifies engagement of FXR by an agonist.
Plate human hepatocarcinoma Huh7 cells grown in DMEM:F12 with 10% fetal bovine serum and in 96 well plate at the density of 1×10^5/well. After overnight incubation, treat the cells with test compounds at various concentrations for 24 hours. […]
Incubate the lysis buffer for 15-minute at 37° C., then transfer 100 μL of the lysate from each well to the corresponding wells of the capture plate. […] Label the mRNA to be measured by addition of 100 μL QuantiGene® label probe working buffer then incubate for 60 minutes at 46° C. […] Incubate the plates at 37° C. for up to 30 minutes and then read on a luminometer (Packard Fusion Alpha, 1 second detection) to detect the luminescent signal. […]

The structures appear in SMILES notation.

Consider `Cc1cc(CN(C)c2ccc(OCc3c(C(C)C)nnn3-c3c(Cl)cccc3Cl)cc2C)ccc1C(=O)O` [Example 13, 4-[({4-[5-Isopropyl-3-(2,6-dichloro-phenyl)-3H-[1,2,3]triazol-4-ylmethoxy]-2-methyl-phenyl}-methyl-amino)-methyl]-2-methyl-benzoic acid], for which, in the assay on LDLR−/− mice, the “lowering of total cholesterol” value is recorded as 60% and the lowering of triglycerides was found to be 63%. In general, EC50 refers to the concentration that produces a half-maximal response. Consider `Cc1cc(OCc2c(C(C)C)nnn2-c2c(Cl)cccc2Cl)ccc1N(C)Cc1ccc(C(=O)O)cc1` [Example 42, 4-[({4-[5-Isopropyl-3-(2,6-Dichloro-phenyl)-3H-[1,2,3]triazol-4-ylmethoxy]-2-methyl-phenyl}-methyl-amino)-methyl]-benzoic acid], for which, on FXR, the EC50 is approximately 370 nM.
